Source: US8188069B2, “Azepine derivatives as gamma-secretase inhibitors” (Eli Lilly and Company, priority 2007, dated 2012)

Experiments:
[1] = test system: β-amyloid peptide production in 293 751 SWE cells (HEK293 transfected with APP751 Swedish mutation); test: In vitro inhibition of β-amyloid production (ELISA, 293 751 SWE cells); type: cell-based, human; details: two hour incubation, n = 3
Method: This screening assay employed cells (HEK293=human kidney cell line) which were stably transfected with the gene for amyloid precursor protein 751 (APP751) containing the double mutation Lys651Met652 to Asn651Leu652 (APP751 numbering) in the manner described in International Patent Application Publication No. 94/10569. This mutation is commonly called the Swedish mutation and the cells, designated as “293 751 SWE”, were plated in Corning 96-well plates at 2-4×10^4 cells per well in Dulbecco's minimal essential media (Sigma, St. Louis, Mo.) plus 10% fetal bovine serum. Cell number is important in order to achieve β-amyloid ELISA results within the linear range of the assay (˜0.03 to 1.0 ng per mL).
Following overnight incubation at 37° C. in an incubator equilibrated with 5% carbon dioxide, media are removed and replaced with a stock solution of test compound (200 μL per well) for a two hour incubation period.
At the end of the incubation period, 100 μL from each well, of conditioned media or appropriate dilutions thereof are transferred into an ELISA plate pre-coated with antibody 266 [P. Seubert, Nature (1992) 359:325-327] against amino acids 13-28 of β-amyloid peptide as described in International Patent Application Publication No. 94/10569 and stored at 4° C. overnight. An ELISA assay employing labeled antibody 3D6 [P. Seubert, Nature (1992) 359:325-327] against amino acids 1-5 of β-amyloid peptide is run the next day to measure the amount of β-amyloid peptide produced. The results of the β-amyloid peptide ELISA are fit to a standard curve and expressed as ng/mL β-amyloid peptide and the concentration of test compounds producing 50% inhibition (IC50) of β-amyloid peptide production are estimated using a four parameter logistic model within Graph Pad Prism (San Diego, Calif.).

Hippocampal Total A-beta = test: In vivo suppression of β-amyloid, brain assay (hippocampal total A-beta ELISA); details: young heterozygous PDAPP mice, sacrifice 3 hours post-administration
Method: (§1) This example illustrates how the compounds of this invention could be tested for in vivo suppression of β-amyloid release and/or synthesis. For these experiments, 3 to 4 month old PDAPP mice are used [Games et al., (1995) Nature 373:523-527]. Depending upon which compound is being tested, the compound is usually formulated at between 1 and 10 mg/mL. Because of the low solubility factors of the compounds, they may be formulated with various vehicles, such as corn oil; 10% ethanol in corn oil; 2-hydroxypropyl-β-cyclodextrin (Research Biochemicals International, Natick, Mass.); and carboxy-methyl-cellulose (Sigma Chemical Co., St. Louis, Mo.).
For acute efficacy studies, PDAPP mice are dosed orally by gavage and 3 hours later the animals are euthanized via CO2 narcosis. For sub-chronic studies, PDAPP mice are dosed once-a-day or twice-a-day for 7 days, and sacrificed 3 hours after the last dose. Blood is taken by cardiac puncture using a 1 cc 25G ⅝″ tuberculin syringe/needle coated with solution of 0.5 M EDTA, pH 8.0. The blood is placed in a Becton-Dickinson vacutainer tube containing EDTA and spun down for 15 minutes at 1500×g at 5° C. The brains of the mice are then removed and the cortex and hippocampus are dissected out, placed in labeled eppendorf tubes and rapidly frozen on dry ice.
To prepare hippocampal and cortical tissue for enzyme-linked immunosorbent assays (ELISAs) each brain region is homogenized in 10 volumes of ice cold guanidine buffer (5.0 M guanidine-HCl, 50 mM Tris-HCl, pH 8.0) using a Polytron. The homogenates are gently rocked on a rotating platform for three to four hours at room temperature and stored at −20° C. prior to quantitation of β-amyloid.
The brain homogenates are diluted 1:10 with ice-cold casein buffer [0.25% casein, phosphate buffered saline (PBS), 0.05% sodium azide, 20 μg/ml aprotinin, 5 mM EDTA, pH 8.0, 10 μg/ml leupeptin], thereby reducing the final concentration of guanidine to 0.5 M, before centrifugation at 16,000×g for 20 minutes at 4° C. Samples are further diluted, if necessary, to achieve an optimal range for the ELISA measurements by the addition of casein buffer with 0.5 M guanidine hydrochloride added. The β-amyloid standards (1-40 or 1-42 amino acids) are prepared such that the final composition equaled 0.5 M guanidine in the presence of 0.1% bovine serum albumin (BSA).
The Total β-amyloid 1-x sandwich ELISA, quantitating essentially all species of β-amyloid (including β-amyloid 1-40 and β-amyloid 1-42), employs two monoclonal antibodies (mAb) to β-amyloid. The capture antibody, 266 [P. Seubert, Nature (1992) 359:325-327], is specific to amino acids 13-28 of β-amyloid. The antibody 3D6 [Johnson-Wood et al., PNAS USA (1997) 94:1550-1555], which is specific to amino acids 1-5 of β-amyloid, is biotinylated and served as the reporter antibody in the assay. The 3D6 biotinylation procedure employs the manufacturer's (Pierce, Rockford, Ill.) protocol for NHS-biotin labeling of immunoglobulins except that 100 mM sodium bicarbonate, pH 8.5 buffer is used.
The 266 and 21F12 capture mAbs are coated at 10 μg into 96-well immunoassay plates (Costar, Cambridge, Mass.) overnight at room temperature. The plates are then aspirated and blocked with 0.25% human serum albumin in PBS buffer for at least 1 hour at room temperature, then stored desiccated at 4° C. until use. The plates are rehydrated with wash buffer (Tris-buffered saline, 0.05% Tween 20) prior to use. […]

plasma A-beta = test: In vivo suppression of β-amyloid, blood assay (plasma total β-amyloid ELISA); set-up: species or system PDAPP mice; details: 3 mg/kg b.i.d. for 7 days; p<0.001 relative to vehicle control
Method: as §1
For acute efficacy studies, PDAPP mice are dosed orally by gavage and 3 hours later the animals are euthanized via CO2 narcosis. For sub-chronic studies, PDAPP mice are dosed once-a-day or twice-a-day for 7 days, and sacrificed 3 hours after the last dose. […]
The Total β-amyloid 1-x sandwich ELISA, quantitating essentially all species of β-amyloid (including β-amyloid 1-40 and β-amyloid 1-42), employs two monoclonal antibodies (mAb) to β-amyloid. […]
The 266 and 21F12 capture mAbs are coated at 10 μg into 96-well immunoassay plates (Costar, Cambridge, Mass.) overnight at room temperature. […] Reaction product is quantified using a Molecular Devices Vmax (Molecular Devices, Menlo Park, Calif.) measuring the difference in absorbance at 450 nm and 650 nm. […]

CC(C)[C@H](O)C(=O)N[C@@H](C)C(=O)N[C@H]1C=C(c2ccccc2)C=CN(C)C1=O (single isomer, unassigned) [1 (diasteromer 2)]
IC50 ([1]; Homo sapiens, HEK293, 2 h): 5 ± 0.7 nM | Hippocampal Total A-beta % REDUCTION (Hippocampal Total A-beta; 0.1 mg/kg oral, n = 1 experiment): 18% | Hippocampal Total A-beta % REDUCTION (Hippocampal Total A-beta; 0.3 mg/kg oral, mean ± SD, n = 2 experiments): 31 ± 13% | Hippocampal Total A-beta % REDUCTION (Hippocampal Total A-beta; 1 mg/kg oral, mean ± SD, n = 3 experiments): 48 ± 11% | Hippocampal Total A-beta % REDUCTION (Hippocampal Total A-beta; 3 mg/kg oral, mean ± SD, n = 5 experiments): 59 ± 5% | Hippocampal Total A-beta % REDUCTION (Hippocampal Total A-beta; 10 mg/kg oral, n = 1 experiment): 69% | reduction of plasma A-beta (plasma A-beta): 54%

CC(C)[C@H](F)C(=O)N[C@@H](C)C(=O)NC1C=C(c2ccccc2)C=CN(C)C1=O (single isomer, unassigned) [2 (diastereomer 1)]
IC50 [1]: 3330 ± 430 nM

CC(C)[C@H](F)C(=O)N[C@@H](C)C(=O)NC1C=C(c2ccccc2)C=CN(C)C1=O (single isomer, unassigned) [2 (diastereomer 2)]
IC50 [1]: 8 ± 0.8 nM

CC(C)C1=CC(NC(=O)[C@H](C)NC(=O)[C@@H](O)C(C)C)C(=O)N(C)C=C1 (single isomer, unassigned) [3 (diastereomer 1)]
IC50 [1]: 10700 ± 1800 nM

CC(C)C1=CC(NC(=O)[C@H](C)NC(=O)[C@@H](O)C(C)C)C(=O)N(C)C=C1 (single isomer, unassigned) [3 (diastereomer 2)]
IC50 [1]: 36 ± 1 nM
